In patent US20250026724A1, “(1,4,5-TRISUBSTITUTED 1H-PYRAZOL-3-YL)OXY-2-ALKYLTHIOALKYL ACIDS AND -ALKYL ACID DERIVATIVES, SALTS THEREOF AND USE THEREOF AS ACTIVE HERBICIDAL INGREDIENTS” (BAYER AKTIENGESELLSCHAFT, priority 2021, published 2025):

Experiments:
Type in all cases: in vivo
[1] = tested on: Alopecurus myosuroides (ALOMY); assay: Post-emergence herbicidal action, greenhouse pot trial; details: visual rating after about 3 weeks; for pest or weed control at 320 g/ha: Alopecurus myosuroides, 504 h, read-out: Post-emergence effect at 320 g/ha against ALOMY in %
Description: (§1) Seeds of monocotyledonous and dicotyledonous weeds and crop plants are placed in sandy loam in plastic or organic planting pots, covered with soil and cultivated in a greenhouse under controlled growth conditions. 2 to 3 weeks after sowing, the trial plants are treated at the one-leaf stage. The compounds of the invention, formulated in the form of wettable powders (WP) or as emulsion concentrates (EC), are then sprayed onto the green parts of the plants as aqueous suspension or emulsion with addition of 0.5% additive at a water application rate equivalent to 600 l/ha. After about 3 weeks of keeping the trial plants in the greenhouse under optimum growth conditions, the effect of the preparations is rated visually in comparison to untreated controls. For example, 100% activity=the plants have died, 0% activity=like control plants.
(§2) Tables B1 to B14 below show the effects of selected compounds of the general formula (I) according to Table 1 on various harmful plants and at an application rate corresponding to 320 g/ha or lower, which were obtained by the trial procedure specified above. The appendices “a”, “b” and “c” give differentiation by dosage used with otherwise the same harmful plants tested.
(§3) As shown by results from Tables B1 to B19, inventive compounds of the general formula (I) in the case of post-emergence treatment have good herbicidal efficacy against harmful plants, for example Abutilon theophrasti (ABUTH), Alopecurus myosuroides (ALOMY), Amaranthus retroflexus (AMARE), Avena fatua (AVEFA), Digitaria sanguinalis (DIGSA), Echinochloa crus-galli (ECHCG), Bassia scoparia (KCHSC), Lolium rigidum (LOLRI), Matricaria inodora (MATIN), Pharbitis purpurea (PHBPU), Polygonum convolvulus (POLCO), Setaria viridis (SETVI), Veronica persica (VERPE) and Viola tricolor (VIOTR) at an application rate of 320 g of active substance or less per hectare, and good crop plant compatibility in the case of organisms such as Oryza sativa (ORYSA), Zea mays (ZEAMX), Brassica napus (BRSNW), Glycine max (GLXMA) and Triticum aestivum (TRZAS) at an application rate of 320 g or less per hectare.

[2] = tested on: Digitaria sanguinalis (DIGSA); assay: as above; details: visual rating after about 3 weeks; for pest or weed control at 320 g/ha: Digitaria sanguinalis, 504 h, read-out: Post-emergence effect at 320 g/ha against DIGSA in %
Description: as §1, §2, §3

Lolium rigidum (LOLRI) = assay: as above; details: visual rating after about 3 weeks; for pest or weed control at 320 g/ha: Lolium rigidum, 504 h, read-out: Post-emergence effect at 320 g/ha against LOLRI in %
Description: as §1, §2, §3

[3] = tested on: Polygonum convolvulus (POLCO); assay: as above; details: visual rating after about 3 weeks; for pest or weed control at 80 g/ha / pest or weed control at 320 g/ha: Fallopia convolvulus, 504 h; for pest or weed control at 80 g/ha: read-out: Post-emergence effect at 80 g/ha against POLCO in %; for pest or weed control at 320 g/ha: read-out: Post-emergence effect at 320 g/ha against POLCO in %
Description: as §1, §2, §3

[4] = tested on: Pharbitis purpurea (PHBPU); assay: as above; details: visual rating after about 3 weeks; for pest or weed control at 80 g/ha / pest or weed control at 320 g/ha: Ipomoea purpurea, 504 h; for pest or weed control at 80 g/ha: read-out: Post-emergence effect at 80 g/ha against PHBPU in %; for pest or weed control at 320 g/ha: read-out: Post-emergence effect at 320 g/ha against PHBPU in %
Description: as §1, §2, §3

[5] = tested on: Abutilon theophrasti (ABUTH); assay: as above; details: Abutilon theophrasti, 504 h, visual rating after about 3 weeks; for pest or weed control at 80 g/ha: read-out: Post-emergence effect at 80 g/ha against ABUTH in %; for pest or weed control at 320 g/ha: read-out: Post-emergence effect at 320 g/ha against ABUTH in %
Description: as §1, §2, §3

[6] = tested on: Echinochloa crus-galli (ECHCG); assay: as above; details: Echinochloa crus-galli, 504 h, visual rating after about 3 weeks; for pest or weed control at 80 g/ha: read-out: Post-emergence effect at 80 g/ha against ECHCG in %; for pest or weed control at 320 g/ha: read-out: Post-emergence effect at 320 g/ha against ECHCG in %
Description: as §1, §2, §3

[7] = tested on: Matricaria inodora (MATIN); assay: as above; details: Tripleurospermum inodorum, 504 h, visual rating after about 3 weeks; for pest or weed control at 80 g/ha: read-out: Post-emergence effect at 80 g/ha against MATIN in %; for pest or weed control at 320 g/ha: read-out: Post-emergence effect at 320 g/ha against MATIN in %
Description: as §1, §2, §3

Setaria viridis (SETVI) = assay: as above; details: visual rating after about 3 weeks; for pest or weed control at 320 g/ha: Setaria viridis, 504 h, read-out: Post-emergence effect at 320 g/ha against SETVI in %
Description: as §1, §2, §3

Avena fatua (AVEFA) = assay: as above; details: visual rating after about 3 weeks; for pest or weed control at 320 g/ha: Avena fatua, 504 h, read-out: Post-emergence effect at 320 g/ha against AVEFA in %
Description: as §1, §2, §3

Bassia scoparia (KCHSC) = assay: as above; details: 320 g/ha
Description: as §1, §2, §3

[8] = tested on: Amaranthus retroflexus (AMARE); assay: as above; details: visual rating after about 3 weeks; for pest or weed control at 80 g/ha / pest or weed control at 320 g/ha: Amaranthus retroflexus, 504 h; for pest or weed control at 80 g/ha: read-out: Post-emergence effect at 80 g/ha against AMARE in %; for pest or weed control at 320 g/ha: read-out: Post-emergence effect at 320 g/ha against AMARE in %
Description: as §1, §2, §3

Viola tricolor (VIOTR) = assay: as above; details: Viola tricolor, 504 h, read-out: Post-emergence effect against VIOTR
Description: as §1, §2, §3

[9] = tested on: Triticum aestivum (TRZAS); assay: Post-emergence crop plant compatibility, greenhouse pot trial; details: in vivo
Description: as §1
The observed effects on selected crop plants are reported here in comparison to the untreated controls (values in %). The appendices “a”, “b” and “c” give differentiation by dosage used with otherwise the same useful plants tested.
as §3

SMILES	pest or weed control at 320 g/ha [1]	Post-emergence effect at 80 g/ha against DIGSA in % [2]	pest or weed control at 320 g/ha [2]	pest or weed control at 320 g/ha (Lolium rigidum (LOLRI))	pest or weed control at 80 g/ha [3]	pest or weed control at 320 g/ha [3]	Post-emergence effect at 20 g/ha against PHBPU in % [4]	pest or weed control at 80 g/ha [4]	pest or weed control at 320 g/ha [4]	pest or weed control at 80 g/ha [5]	pest or weed control at 320 g/ha [5]	pest or weed control at 80 g/ha [6]	pest or weed control at 320 g/ha [6]	pest or weed control at 320 g/ha [7]	pest or weed control at 320 g/ha (Setaria viridis (SETVI))	pest or weed control at 320 g/ha (Avena fatua (AVEFA))	pest or weed control at 80 g/ha [8]	pest or weed control at 320 g/ha [8]	pest or weed control at 80 g/ha (Viola tricolor (VIOTR))	pest or weed control at 320 g/ha (Viola tricolor (VIOTR))	also measured
COC(=O)C(Oc1nn(-c2ncccc2F)c(-c2ccc(F)nc2)c1Br)SC (single isomer, unassigned) [Example I-26]	90%	90%	90%	90%	80%	90%	80%	80%	90%	80%	80%	90%	90%	90%	80%	90%	80%	90%	90%	90%	Post-emergence effect at 80 g/ha against ALOMY in % ([1]; 80 g/ha): 80%; Post-emergence effect at 20 g/ha against POLCO in % ([3]; 20 g/ha): 80%; pest or weed control at 80 g/ha [7]: 90%; Post-emergence effect at 80 g/ha against AVEFA in % (Avena fatua (AVEFA); 80 g/ha): 80%; Post-emergence effect against KCHSC (Bassia scoparia (KCHSC)): 80%
CCOC(=O)C(Oc1nn(-c2ncccc2F)c(-c2ccc(F)nc2)c1Br)SC (single isomer, unassigned) [Example I-28]	90%	80%	90%	90%	90%	90%	80%	90%	90%	80%	80%	90%	90%	90%	90%	80%	90%	90%	80%	90%	Post-emergence effect at 80 g/ha against LOLRI in % (Lolium rigidum (LOLRI); 80 g/ha): 90%; pest or weed control at 80 g/ha [7]: 80%; Post-emergence effect at 80 g/ha against SETVI in % (Setaria viridis (SETVI)): 80%; Post-emergence effect against KCHSC (Bassia scoparia (KCHSC)): 80%; Post-emergence effect at 20 g/ha against AMARE in % [8]: 80%
CSC(Oc1nn(-c2cc(F)ccc2F)c(-c2cncc(F)c2)c1Br)C(=O)O (stereo not drawn) [Example I-06]			80%						80%				90%	90%					80%	90%	Post-emergence effect at 320 g/ha against TRZAS in % [9]: 20%
COC(=O)C(Oc1nn(-c2ccccc2F)c(-c2ccc(F)nc2)c1Br)SC (stereo not drawn) [Example I-10]	100%	90%	90%	90%	80%	80%			80%	90%	90%	80%	90%	90%	90%		80%	80%	80%	90%	pest or weed control at 80 g/ha [7]: 80%; Post-emergence effect at 80 g/ha against SETVI in % (Setaria viridis (SETVI)): 90%; Post-emergence effect at 20 g/ha against AMARE in % [8]: 80%
CCOC(=O)C(Oc1nn(-c2ncccc2F)c(-c2ccccc2)c1Br)SC (stereo not drawn) [Example I-11]					80%	80%					80%		80%	80%			80%	90%			Post-emergence effect at 320 g/ha against TRZAS in % [9]: 0%
CCOC(=O)C(Oc1nn(-c2ncccc2F)c(-c2ccc(F)nc2)c1Br)SC (stereo not drawn) [Example I-13]	80%		90%	90%	80%	90%		80%	80%	90%	90%	80%	90%		90%	90%	80%	90%		80%	Post-emergence effect at 80 g/ha against SETVI in % (Setaria viridis (SETVI)): 80%
COC(=O)C(Oc1nn(-c2ncccc2F)c(-c2ccc(F)nc2)c1Cl)SC (stereo not drawn) [Example I-56]	80%		80%	90%	80%	90%	80%	90%	90%	80%	90%	90%	90%	80%	90%	90%			80%	90%	pest or weed control at 320 g/ha (Bassia scoparia (KCHSC); Bassia scoparia, 504 h, read-out: Post-emergence effect against KCHSC): 80%
